Legend:
[1] = target: T1, AR in stickleback kidney cytosolic extracts (Gasterosteus aculeatus, UniProt Q801Z1); assay: Ligand competition assay with 1 nM [3H]-DHT, kidney cytosolic extracts; format: binding, three-spined stickleback (Gasterosteus aculeatus); details: overnight 4°C, read-out: EC50 (competition for [3H]-DHT binding)
T1 sequence (Q801Z1 1-682): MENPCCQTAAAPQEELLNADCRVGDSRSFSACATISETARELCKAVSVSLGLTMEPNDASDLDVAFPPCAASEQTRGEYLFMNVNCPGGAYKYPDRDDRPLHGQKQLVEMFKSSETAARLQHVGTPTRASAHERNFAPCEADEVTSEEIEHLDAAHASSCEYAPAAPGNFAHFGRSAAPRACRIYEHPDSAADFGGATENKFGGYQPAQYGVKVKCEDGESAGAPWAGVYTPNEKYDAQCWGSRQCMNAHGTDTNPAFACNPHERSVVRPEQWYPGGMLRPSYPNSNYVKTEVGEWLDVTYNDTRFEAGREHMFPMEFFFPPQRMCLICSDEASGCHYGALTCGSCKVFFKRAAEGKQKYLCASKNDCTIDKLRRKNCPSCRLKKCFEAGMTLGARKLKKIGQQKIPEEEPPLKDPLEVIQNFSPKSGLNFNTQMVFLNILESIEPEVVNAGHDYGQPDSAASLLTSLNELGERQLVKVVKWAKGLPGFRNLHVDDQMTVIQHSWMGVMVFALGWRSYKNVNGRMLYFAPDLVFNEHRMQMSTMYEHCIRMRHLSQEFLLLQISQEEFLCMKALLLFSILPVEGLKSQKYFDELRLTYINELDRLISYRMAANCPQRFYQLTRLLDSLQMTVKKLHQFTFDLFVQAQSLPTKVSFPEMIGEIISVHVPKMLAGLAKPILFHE
Experimental: (§1) The steroid specificity of receptor binding was examined using a competitive binding assay. […] Following incubation, the reaction was terminated by addition of DCC and centrifugation and the specific binding in each tube was determined as described above.

[2] = target: T2, stickleback ARβ2 (reticulocyte lysate) (Gasterosteus aculeatus, UniProt Q801Z2); assay: Ligand competition assay with 1 nM [3H]-DHT, ARβ2 containing reticulocyte extract; format: binding, three-spined stickleback (Gasterosteus aculeatus); details: read-out: EC50 (competition for [3H]-DHT binding)
T2 sequence (Q801Z2 1-735): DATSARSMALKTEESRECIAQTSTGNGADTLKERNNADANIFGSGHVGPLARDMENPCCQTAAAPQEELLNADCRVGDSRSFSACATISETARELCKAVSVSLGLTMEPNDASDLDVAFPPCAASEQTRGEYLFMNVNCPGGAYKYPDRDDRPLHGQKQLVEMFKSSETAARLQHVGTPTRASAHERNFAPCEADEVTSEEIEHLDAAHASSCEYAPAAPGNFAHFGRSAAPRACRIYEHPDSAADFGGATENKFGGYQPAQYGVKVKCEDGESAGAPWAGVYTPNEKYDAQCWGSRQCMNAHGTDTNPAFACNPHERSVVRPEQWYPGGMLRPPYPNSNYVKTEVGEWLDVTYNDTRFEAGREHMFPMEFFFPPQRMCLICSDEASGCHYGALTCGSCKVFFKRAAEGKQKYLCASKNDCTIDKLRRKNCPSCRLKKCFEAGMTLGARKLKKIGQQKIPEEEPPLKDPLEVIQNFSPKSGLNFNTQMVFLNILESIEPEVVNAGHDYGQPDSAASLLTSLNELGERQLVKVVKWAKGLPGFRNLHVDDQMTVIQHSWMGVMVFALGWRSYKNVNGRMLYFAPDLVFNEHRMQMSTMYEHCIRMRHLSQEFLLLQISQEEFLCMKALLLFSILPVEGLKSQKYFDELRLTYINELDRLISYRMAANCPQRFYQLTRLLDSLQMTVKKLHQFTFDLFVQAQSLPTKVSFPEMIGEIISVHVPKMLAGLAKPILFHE
Experimental: The excised AR pBK CMV clones were digested with XbaI and EcoRI and the inserts were gel purified prior to ligation into the pCMV-TNT vector (Promega) between XbaI and EcoRI. […] AR was expressed by introducing the pCMV-TNT into the TNT coupled reticulocyte lysate system (Promega) according to the manufacturer's instructions. The size of the expressed products was determined by addition of S^35-methionin to the reticulocyte lysate system. The obtained protein suspension was analyzed on a denaturing 8% SDS PAGE and the sizes were determined using prestained SDS-PAGE broad range protein molecular weight standard (Bio-Rad) and a control luciferase protein of 62 kDa included in the reticulocyte lysate system (Promega). For use in binding assays AR was expressed in the absence of radioactive S^35-methionein and stored at 4°C until further used in recombinant binding assay experiments.
as §1

[3] = test system: stickleback ARβ2; assay: ARE-luciferase trans-activation assay, stickleback ARβ2 in transfected HepG2 and ZFL cells; format: cell-based, three-spined stickleback (Gasterosteus aculeatus); details: for induction of luciferase activity: 40 h, versus control
Experimental: Two liver epithelial cell lines were used to test receptor activity. HepG2 cells (ATCC, Manassas, VA) were maintained in DMEM supplemented with 10% FCS and non-essential amino acids. ZFL cells (ATCC) were maintained in 50% L-15 Leibovitz, 15% […] and 35% DMEM supplemented with 10% FCS (Gibco, Paisley, Scotland, UK) and 50 ng ml-1 EGF (Sigma). Cells were cultured at 37°C (HepG2) or 28°C (ZFL) in 5% CO2. The transfection experiments were initiated by replacing the tissue culture medium with fresh phenol-free medium supplemented with charcoal stripped FCS and the cells were seeded on 24-well plates. Transfections were performed at 90–95% confluence using 1,5 μl Lipofectamine 2000 (Invitrogen, Carlsbad, CA, USA) and 0,6 μg DNA per well. Transfected DNA contained 60 ng pRL (Promega), 270 ng androgen response element (ARE) luciferase reporter vector, 270 ng stickleback ARβ2 expression vector or 270 ng human AR expression vector (pCMVhAR) while 270 ng empty TNT cloning vector was used to control background luciferase levels following transfections. Two different ARE containing promoter constructs were tested, one containing 3 separate ARE (HRE; slp-ARU) and a second one construct (slp-HRE2) containing 4 copies of the ARE with high affinity for R1881, a synthetic androgen, and low affinity for dexamethasone, a synthetic glucocorticoid.
After 16 h the transfection medium was replaced with fresh phenol-free medium, supplemented with charcoal stripped FCS, containing different steroid hormones. The cells were exposed to the hormones for 40 h and luciferase levels were detected using the Dual Luciferase Assay kit (Promega) in a TD 20/20 Luminometer (Turner Designs, Sunnyvale, CA). For each cell line, transfection assay was performed for each concentration with n = 4 and the luciferase value of each assay were normalized to its corresponding Renilla luciferase activity. Each experiment was repeated a minimum of 3 times. The fold-induction is presented as luciferase values normalized against the control. The control levels were arbitrarily set to 1.0 for each cell line.

With `C[C@]12CC(=O)[C@H]3[C@@H](CCC4=CC(=O)CC[C@@]43C)[C@@H]1CC[C@@H]2O` [KT, 11-ketotestosterone] the EC50 [1] was 42.8 ± 3.42 nM, the EC50 [2] was 2.18 ± 0.71 nM and the “induction of luciferase activity” value ([3]; HepG2 cells) was 10 fold. The “potency in activating the luciferase reporter gene relative to DHT” value ([3]; HepG2 or ZFL cells, slp-ARU or slp-ARE reporter) was 3 fold, the “activation of stickleback AR compared with other androgens” value ([3]; ZFL cells, 10^-8 M of each steroid) was “preferentially activated” and the “induction of luciferase activity” value ([3]; ZFL cells) was 12 fold.

— PMC1192819, “Molecular cloning and characterization of a nuclear androgen receptor activated by 11-ketotestosterone” (Reproductive biology and endocrinology : RB&E, 2005)
